From the NIST ThermoML archive (doi:10.1021/je900596d)
± gives the expanded uncertainty stated by the source.

Conditions: for mass density: 283.24 K, Fluid (supercritical or subcritical phases), Vibrating tube method; for vapor or sublimation pressure: Liquid, Closed cell (Static) method

FC(F)=C(F)C(F)(F)F [hexafluoropropene]
Conditions | mass density [kg/m3] | vapor or sublimation pressure [kPa]
114 kPa | 7.35 ± 0.03 | –
116.4 kPa | 7.51 ± 0.03 | –
118.8 kPa | 7.66 ± 0.03 | –
121.1 kPa | 7.8 ± 0.03 | –
123.6 kPa | 8.03 ± 0.03 | –
126.1 kPa | 8.11 ± 0.03 | –
128.5 kPa | 8.33 ± 0.04 | –
131 kPa | 8.54 ± 0.04 | –
133.4 kPa | 8.66 ± 0.04 | –
135.9 kPa | 8.94 ± 0.04 | –
140.7 kPa | 9.1 ± 0.04 | –
143.2 kPa | 9.36 ± 0.04 | –
145.7 kPa | 9.54 ± 0.04 | –
148.1 kPa | 9.69 ± 0.04 | –
150.6 kPa | 9.83 ± 0.04 | –
153 kPa | 9.99 ± 0.04 | –
155.6 kPa | 10.24 ± 0.04 | –
158.1 kPa | 10.37 ± 0.04 | –
160.5 kPa | 10.54 ± 0.04 | –
163 kPa | 10.74 ± 0.04 | –
165.1 kPa | 10.87 ± 0.04 | –
167.6 kPa | 11.05 ± 0.04 | –
170 kPa | 11.2 ± 0.04 | –
172.5 kPa | 11.37 ± 0.04 | –
176.6 kPa | 11.7 ± 0.04 | –
179.2 kPa | 11.83 ± 0.04 | –
181.6 kPa | 12.01 ± 0.04 | –
184.2 kPa | 12.12 ± 0.04 | –
186.6 kPa | 12.42 ± 0.04 | –
190.9 kPa | 12.6 ± 0.04 | –
193.4 kPa | 12.77 ± 0.04 | –
195.9 kPa | 13.03 ± 0.04 | –
198.4 kPa | 13.21 ± 0.04 | –
203.3 kPa | 13.55 ± 0.04 | –
205.8 kPa | 13.69 ± 0.04 | –
208.3 kPa | 13.93 ± 0.04 | –
210.8 kPa | 14.08 ± 0.04 | –
213.3 kPa | 14.3 ± 0.04 | –
215.8 kPa | 14.4 ± 0.04 | –
218.3 kPa | 14.66 ± 0.04 | –
220.8 kPa | 14.83 ± 0.04 | –
223.3 kPa | 14.99 ± 0.04 | –
225.7 kPa | 15.16 ± 0.04 | –
228.2 kPa | 15.32 ± 0.04 | –
230.7 kPa | 15.58 ± 0.04 | –
233.2 kPa | 15.69 ± 0.04 | –
235.7 kPa | 15.79 ± 0.04 | –
238.2 kPa | 16.04 ± 0.04 | –
240.7 kPa | 16.28 ± 0.04 | –
243.2 kPa | 16.38 ± 0.04 | –
245.6 kPa | 16.6 ± 0.04 | –
248.1 kPa | 16.83 ± 0.04 | –
250.7 kPa | 17.01 ± 0.04 | –
253.2 kPa | 17.15 ± 0.04 | –
255.6 kPa | 17.39 ± 0.04 | –
258.1 kPa | 17.58 ± 0.04 | –
260.5 kPa | 17.67 ± 0.04 | –
263 kPa | 17.89 ± 0.04 | –
265.5 kPa | 18.02 ± 0.04 | –
268 kPa | 18.31 ± 0.04 | –
270.4 kPa | 18.49 ± 0.04 | –
272.9 kPa | 18.6 ± 0.04 | –
275.4 kPa | 18.8 ± 0.04 | –
277.9 kPa | 19.01 ± 0.04 | –
280.5 kPa | 19.23 ± 0.04 | –
283.1 kPa | 19.39 ± 0.04 | –
286.3 kPa | 19.61 ± 0.04 | –
288.21 K | – | 537.1 ± 1.4
288.7 kPa | 19.79 ± 0.04 | –
291.2 kPa | 19.98 ± 0.04 | –
293.19 K | – | 625.9 ± 1.5
293.7 kPa | 20.2 ± 0.04 | –
296.1 kPa | 20.4 ± 0.04 | –
298.22 K | – | 728.3 ± 1.7
298.6 kPa | 20.56 ± 0.04 | –
305.2 kPa | 21.07 ± 0.04 | –
308.4 kPa | 21.36 ± 0.04 | –
311.6 kPa | 21.56 ± 0.04 | –
314.8 kPa | 21.85 ± 0.04 | –
318.2 kPa | 22.13 ± 0.04 | –
321.5 kPa | 22.28 ± 0.04 | –
324.6 kPa | 22.54 ± 0.04 | –
327.9 kPa | 22.87 ± 0.05 | –
331.2 kPa | 23.12 ± 0.05 | –
334.4 kPa | 23.37 ± 0.05 | –
340.9 kPa | 23.85 ± 0.05 | –
344.2 kPa | 24.11 ± 0.05 | –
347.4 kPa | 24.4 ± 0.05 | –
350.6 kPa | 24.64 ± 0.05 | –
353.9 kPa | 24.84 ± 0.05 | –
357.1 kPa | 25.07 ± 0.05 | –
360.3 kPa | 25.34 ± 0.05 | –
363.5 kPa | 25.56 ± 0.05 | –
366.7 kPa | 25.93 ± 0.05 | –
370 kPa | 26.15 ± 0.05 | –
373.1 kPa | 26.37 ± 0.05 | –
376.4 kPa | 26.74 ± 0.05 | –
379.5 kPa | 26.94 ± 0.05 | –
382.8 kPa | 27.24 ± 0.05 | –
385.9 kPa | 27.44 ± 0.05 | –
389.2 kPa | 27.66 ± 0.05 | –
392.3 kPa | 27.96 ± 0.05 | –
395.5 kPa | 28.23 ± 0.05 | –
398.7 kPa | 28.48 ± 0.05 | –
401.8 kPa | 28.77 ± 0.05 | –
405 kPa | 28.98 ± 0.05 | –
408.2 kPa | 29.26 ± 0.05 | –
411.4 kPa | 29.53 ± 0.05 | –
414.6 kPa | 29.77 ± 0.05 | –
417.7 kPa | 30.05 ± 0.05 | –
420.9 kPa | 30.37 ± 0.05 | –
424 kPa | 30.54 ± 0.05 | –
427.2 kPa | 30.81 ± 0.05 | –
430.3 kPa | 31.07 ± 0.05 | –
433.5 kPa | 31.39 ± 0.05 | –
436.6 kPa | 31.7 ± 0.06 | –
439.7 kPa | 31.9 ± 0.06 | –
442.9 kPa | 32.26 ± 0.06 | –
446 kPa | 32.45 ± 0.06 | –
449 kPa | 32.73 ± 0.06 | –
452.1 kPa | 32.99 ± 0.06 | –
454.4 kPa | 33.16 ± 0.06 | –
456.7 kPa | 33.3 ± 0.06 | –
460.5 kPa | 33.77 ± 0.06 | –
462.7 kPa | 33.86 ± 0.06 | –
463.5 kPa | 34.04 ± 0.06 | –
464.2 kPa | 34.05 ± 0.06 | –
465 kPa | 34.18 ± 0.06 | –
465.7 kPa | 34.33 ± 0.06 | –
466.4 kPa | 34.49 ± 0.06 | –
467.1 kPa | 34.74 ± 0.06 | –
467.7 kPa | 35.03 ± 0.06 | –
468.3 kPa | 35.5 ± 0.07 | –
468.9 kPa | 35.71 ± 0.07 | –
